Results reported in publication PMC4773758, “Small Molecule Inhibited Parathyroid Hormone Mediated cAMP Response by N–Terminal Peptide Binding” (Scientific Reports, 2016).

Legend:
[1] = test system: PTH1R in HEK 293 cells; assay: cAMP assay, compound pre-incubated with cells followed by PTH(1–84); format: cell-based, Human; details: compound pre-incubated with the cells, then PTH(1–84)
Method: (§1) The cAMP generation was also analyzed to see the effect of the Zn complex on the receptor itself. Here, the Zn complex was pre-incubated with the cells followed by addition of PTH(1–84). […] In another control experiment cAMP generation was also studied by incubating the 9-anthracenemethanol with the peptide (Figure S9) or directly with the cells (grey bars in Figure S7). […] Additionally, inhibition of cAMP response or cell toxicity was also not observed up to 100 μM of Zn–perchlorate (Figure S10).
HEK 293 cells stably expressing hPTH1R were used for the cAMP accumulation assay following the previously reported procedure. The reaction was carried out at 37 °C and fluorescence measurements were taken using a VICTOR X4 2030 plate reader (PerkinElmer Life and Analytical Sciences). A fixed amount of 0.01 μM peptide hormones and 4 × 10^3 cells per well were used to monitor the cAMP response. The Zn complex or 9-anthracenemethanol was diluted form 0.1 μM to 100 μM and incubated for 15 minutes with the peptide hormone before addition of HEK 293 cells. […] The maximum cAMP response were calculated as a percentage of the maximal response of PTH(1–34) or PTH(1–84). The effect of Zn complex or 9-anthracenemethanol on receptor was evaluated by incubating these with the cells for 15 minutes followed by washing with buffer. […]

[2] = test system: PTH(1–84) induced cAMP in HEK 293 cells expressing hPTH1R; assay: cAMP accumulation assay, compound pre-incubated with PTH(1–84); format: cell-based, Human
Description: NMR spectroscopy identified that the Zn complex interacts with the N–terminal part of the peptide hormone. The binding region from residues 1–37 of PTH(84) is important for recognition, interaction with the extracellular loops and trans–membrane helices of the receptor and bringing about activation of the later. There are two principal signal transduction pathways involving the G protein–coupled receptors: the cAMP signal pathway and the phosphatidylinositol signal pathway. Parathyroid hormone is involved in the cAMP pathway for its biological regulation. Because binding of the Zn complex was at the N–terminal part of PTH, it is interesting to investigate the cAMP response towards its receptor in the presence of the Zn complex. Therefore PTH(1–34) and PTH(1–84) induced cAMP accumulation was measured in stable HEK 293 cell lines expressing recombinant PTH1R[33]. A cAMP generation assay was carried out in a Zn complex concentration dependent manner, keeping the cells and peptide hormone concentrations constant. PTH response without Zn complex was considered as 100% cAMP response. The peptide hormones were exposed to Zn complex for 15 minutes to allow for complex formation and subsequently cAMP generation was studied.
HEK 293 cells stably expressing hPTH1R were used for the cAMP accumulation assay following the previously reported procedure. The reaction was carried out at 37 °C and fluorescence measurements were taken using a VICTOR X4 2030 plate reader (PerkinElmer Life and Analytical Sciences). A fixed amount of 0.01 μM peptide hormones and 4 × 10^3 cells per well were used to monitor the cAMP response. The Zn complex or 9-anthracenemethanol was diluted form 0.1 μM to 100 μM and incubated for 15 minutes with the peptide hormone before addition of HEK 293 cells. All experiments were performed in triplicate and repeated independently three times. The maximum cAMP response were calculated as a percentage of the maximal response of PTH(1–34) or PTH(1–84). The effect of Zn complex or 9-anthracenemethanol on receptor was evaluated by incubating these with the cells for 15 minutes followed by washing with buffer. These treated cells were added to the reaction mixture containing untreated PTH(1–84) as described above.

[3] = target: T1, PTH(1–84) (Homo sapiens, UniProt P01270); assay: Fluorescence quenching titration with PTH(1–84); format: binding
T1 construct: SUMO (N, cleaved yes); His-tag (C); made in house; host or cells: E. coli BL21 codon+
T1 sequence (P01270 32-115): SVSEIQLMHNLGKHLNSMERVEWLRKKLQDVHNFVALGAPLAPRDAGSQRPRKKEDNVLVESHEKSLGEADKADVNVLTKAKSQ
Method: The natural form of parathyroid hormone comprises 84 residues, however, PTH(1–34) is sufficient for receptor activation. PTH contains one tryptophan residue at position 23. Thus it can be used as a highly sensitive fluorescent probe for the analysis of ligand binding by fluorescence spectroscopy. PTH is composed of structured sections mainly from positions 1–37, whereas the C–terminal part is largely unstructured. […] In order to establish the binding a titration experiment was carried out where the PTH(1–34) concentration was kept constant and the concentration of the Zn complex was varied.
The fluorescence quenching behavior was analyzed according to the equation given in the experimental section. […] In order to evaluate the interaction at the C–terminal part of the PTH and its role in binding, full length PTH(1–84) was taken and its binding was established.
Fluorescence titrations were carried out on a JASCO FP6500. The samples were excited at 280 nm wavelength and the emission spectra were recorded in the range between 290 nm to 450 nm. Experiments were carried out in 10 mM BisTris, 300 mM Na2SO4, 0.02% NaN3, pH 7.2 using a 1 cm path length quartz cell. The concentration of PTH(1–34), PTH(1–84) and nECD-PTH1R used in the titration experiments were 7.4 μM, 8.1 μM and 5 μM, respectively. In a typical titration experiment, 4 μM of Zn complex or 9-anthracenemethanol was added and spectra were recorded after each addition. Zn complex or 9-anthracenemethanol in buffer was used as blank titration and these spectral traces were subtracted from the main titration. The Zn complex or 9-anthracenemethanol was dissolved in dimethyl sulfoxide and further diluted for experiments. The final concentration of DMSO was <1% in any experiment.
Fluorescence data were analyzed according to the following equation:
with P = (P0 / (V0 + L))V0 and L1 = (L0 / (V0 + L))L and Q – fluorescence intensity, P – protein concentration, L – ligand concentration, V – volume, n – binding sites and 0 – indicates start point.

[4] = target: T1, PTH(1–84); assay: NMR 1H–15N HSQC titration with 15N–PTH(1–84); format: binding; details: pH 5.3, 25 °C
Description: Preferential binding at residue-level resolution was further investigated by choosing full length ^15N PTH(1–84) to see whether or not the C–terminal region is involved in the Zn complex interaction. […] These NMR spectra indicate that the N–terminal domain of PTH (1–84) binds to the Zn complex whereas the C–terminus part remains solvent exposed and flexible enough to result in observable resonances. […] Histidine 63 is the only exception in the C–terminal part of PTH(1–84) sensing complex formation.
The spectra were recorded at the concentration of 50 μM of peptide hormones. Subsequently, titration was carried out with the addition of 0.5 μl of 10 mM Zn complex until there was no further change in NMR intensity observed. The spectrum corresponding to the 1:4 complex formations was used for the analysis. For the 9-anthracenemethanol titration experiment 20 μM of PTH was used. A titration was carried out and the 1:4 complex of PTH:9-anthracenemethanol was analyzed in detail. The spectra were corrected for the dilution factor. The previously determined NMR assignments of PTH resonances were used[24][63][64]. The spectra were recorded in the 10 mM BisTris, 300 mM Na2SO4, 0.02% NaN3, pH 5.3, with a Bruker 800 MHz Avance III spectrometer equipped with a CP–TCI cryoprobe at 25 °C. Spectra were processed using the programs NMRPipe and NMR Draw.

[5] = test system: HEK 293 cells; assay: Cell viability, MTT assay; format: cell-based, Human; details: up to 100 μM, MTT after 3h
Method: as §1
Figure S10: (a) cAMP response and (b) cell viability against Zn–perchlorate. Cell viability was tested after 3h using MTT assay.

| SMILES | suppression of cAMP generation [1] | suppression of intracellular cAMP generation ([2]; compound incubated with the peptide PTH(1–84)) | Kd ([3]; fluorescence titration against PTH(1–84)) [mM] | change in NMR cross peaks / intensity of PTH(1–84) [4] | inhibition of cAMP response ([2]; up to 100 μM) | cell toxicity [5] | change in fluorescence intensity ([3]; up to 200 μM, PTH(1–84)) |
| --- | --- | --- | --- | --- | --- | --- | --- |
| OCc1c2ccccc2cc2ccccc12 [9-anthracenemethanol, reference compound] | significant suppression of intracellular cAMP generation was not observed | significant suppression of intracellular cAMP generation was not observed | 3.52 ± 0.38 | no residue specific NMR intensity loss |  |  |  |
| [O-][Cl+3]([O-])([O-])[O-].[O-][Cl+3]([O-])([O-])[O-].[Zn+2] [Zn–perchlorate, reference compound] |  |  |  | did not show a significant change in NMR cross peaks | not observed | not observed | did not show any significant change |
